Key:
[1] = target: T1, COX-2 (Homo sapiens, UniProt P35354); experiment: Human whole blood assay (PGE-2 inhibition, COX-2); type: cell-based; conditions: LPS stimulated human whole blood, NA = No activity, read-out: % PGE-2 Inhibition in hWBA
T1 construct: Fresh blood was collected in tubes containing sodium heparin by vein puncture from healthy male volunteers; endogenous in cells; host or cells: human whole blood from healthy male volunteers, stimulated with LPS
T1 sequence (P35354 18-604): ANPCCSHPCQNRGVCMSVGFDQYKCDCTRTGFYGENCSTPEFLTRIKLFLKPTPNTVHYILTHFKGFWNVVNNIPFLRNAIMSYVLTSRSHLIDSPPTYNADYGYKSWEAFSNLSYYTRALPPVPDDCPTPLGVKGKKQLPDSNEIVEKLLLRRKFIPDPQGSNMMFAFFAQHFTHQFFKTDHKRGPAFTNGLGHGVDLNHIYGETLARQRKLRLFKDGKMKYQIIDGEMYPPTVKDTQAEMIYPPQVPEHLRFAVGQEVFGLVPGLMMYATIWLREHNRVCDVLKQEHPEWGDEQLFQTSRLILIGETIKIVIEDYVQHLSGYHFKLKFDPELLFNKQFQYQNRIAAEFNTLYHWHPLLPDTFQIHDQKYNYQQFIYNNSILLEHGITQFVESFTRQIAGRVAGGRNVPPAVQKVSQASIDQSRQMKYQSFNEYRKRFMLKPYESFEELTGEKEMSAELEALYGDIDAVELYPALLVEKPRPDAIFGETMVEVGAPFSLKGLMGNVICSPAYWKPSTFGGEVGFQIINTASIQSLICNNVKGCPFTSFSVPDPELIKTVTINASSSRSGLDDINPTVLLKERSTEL
Experimental: In Vitro Evaluation of Cyclooxygenase-2 (Cox-2) Inhibition Activity
The COX-2 inhibition activities of the compounds illustrated in the examples were determined by the following method.
Human whole blood provides a protein and cell rich milieu appropriate for the study of the biochemical efficacy of anti-inflammatory compounds such as selective COX-2 inhibitors. […] This correlates with the observation that COX-2 inhibitors have no effect on prostaglandin E2 (PGE2) production in normal blood. These inhibitors were active only after incubation of human blood with lipopolysaccharide (LPS), which induces COX-2 production in the blood.
Fresh blood was collected in tubes containing sodium heparin by vein puncture from healthy male volunteers. The subjects should have no apparent inflammatory conditions and should have not taken NSAIDs for at least 7 days prior to blood collection. Blood was preincubated with aspirin in vitro (12 μg/ml, at time zero) to inactivate COX-1 for 6 hours. Then test compounds (at various concentrations) or vehicle were added to blood, the blood was stimulated with LPS B:4 (10 μg/ml) and incubated for another 18 hours at 37° C. water bath. After which the blood was centrifuged, plasma was separated and stored at −80° C. (J. Pharmacol. Exp. Ther, 271, 1705, 1994; Proc. Natl. Acad. Sci. USA, 96, 7563, 1999). The plasma was assayed for PGE2 using Cayman ELISA kit as per the procedure outlined by the manufacturer (Cayman Chemicals, Ann Arbor, USA).

[2] = tested on: IL-6; experiment: In vitro measurement of IL-6 in human PBMC (LPS stimulated); type: cell-based
Experimental: In Vitro Measurement of Interleukin-6(IL-6)
This assay determins the effect of test compounds on the production of IL-6 in human PBMC (Physiol. Res. 52: 593-598, 2003). Compounds were tested for their ability to inhibit the activity of IL-6 in human PBMC. PBMC were isolated from blood using BD Vacutainer CPT™ Cell preparation tube (BD Bio Science) and suspended in RPMI medium. The test compounds were pre-incubated with PBMC (0.5 million/incubation well) for 15 minutes at 37° C. and then stimulated with Lipopolysaccharide (Escherichia coli: B4; 1 μg/ml) for 18 hours at 37° C. in 5% CO2. The levels of IL-6 in cell culture medium were estimated using enzyme-linked immunosorbent assay performed in a 96 well format as per the procedure of the manufacturer (Cayman Chemical, Ann Arbor, USA).

[3] = tested on: TNF-α; experiment: In vitro measurement of TNF-α in human PBMC (LPS stimulated); type: cell-based; conditions: for inhibition at 1 µM: NA = No activity, read-out: TNF-α Inhibition (%) at Conc. (1 μM); for inhibition at 10 µM: read-out: TNF-α Inhibition (%) at Conc. (10 μM)
Experimental: In Vitro Measurement of Tumor Necrosis Factor Alpha (TNF-α)
This assay determines the effect of test compounds on the production of TNF α in human Peripheral Blood Mononuclear Cells (PBMC). Compounds were tested for their ability to inhibit the activity of TNF α in human PBMC. PBMC were isolated from blood (of healthy volunteers) using BD Vacutainer CPT™ (Cell preparation tube, BD Bio Science) and suspended in RPMI medium (Physiol. Res. 52: 593-598, 2003). The test compounds were pre-incubated with PBMC (0.5 million/incubation well) for 15 minutes at 37° C. and then stimulated with Lipopolysaccharide (Escherichia coli: B4; 1 μg/ml) for 18 hours at 37° C. in 5% CO2. The levels of TNF-α in the cell culture medium were estimated using enzyme-linked immunosorbent assay performed in a 96 well format as per the procedure of the manufacturer (Cayman Chemical, Ann Arbor, USA).

[4] = tested on: TNF-α; experiment: LPS induced sepsis for measurement of TNF-α inhibition in mice; type: in vivo; conditions: 50 mg/kg, oral, mice, serum 90 minutes after LPS
Experimental: LPS Induced Sepsis for Measurement of TNF-α Inhibition in Mice
The LPS induced sepsis model in mice was performed as described by Les sekut et al (J Lab Clin Med 1994; 124:813-20). Female Swiss albino mice were selected and the body weights were equivalent within each group. The mice were fasted for 20 hours with free access to water. The mice were dosed orally with the test compound suspended in vehicle containing 0.5% Tween 80 in 0.25% Carboxy-methylcellulose sodium salt. The control mice were administered the vehicle alone. After 30 minutes of oral dosing, mice were injected with 500 μg of Lipopolysaccharide (Escherichia coli, LPS: B4 from Siga) in phosphate buffer saline solution into the intraperitoneal cavity of the mice. After 90 minutes of LPS administration mice were bled via retro-orbital sinus puncture. Blood samples were stored overnight at 4° C. Serum samples were collected by centrifuging the samples at 4000 rpm for 15 minutes at 4° C. Immediately the serum samples were analysed for TNF-α levels using commercially available mouse TNF-α ELISA kit (Amersham Biosciences) and assay was performed by the manufacturer instruction.
ED50 Measurement of TNF alpha Inhibition in Mice Sepsis Model

[5] = target: purified recombinant COX-1 (Homo sapiens, UniProt P23219); experiment: COX-1 enzyme based assay; type: biochemical; conditions: NA = No activity, read-out: % Inhibition in rEnzyme Assay COX-1
Experimental: (§1) COX-1 and COX-2 Enzyme Based Assay
(§2) COX-1 and COX-2 enzyme based assays were carried out to check the inhibitory potential of the test compounds on the production of prostaglandin by purified recombinant COX-1/COX-2 enzyme (Proc. Nat. Acad. Sci. USA, 88, 2692-2696, 1991; J. Clin. Immunoassay 15, 116-120, 1992) In this assay, the potential of the test compound to inhibit the production of prostaglandin either by COX-1 or COX-2 from arachidonic acid (substrate) was measured. This was an enzyme based in-vitro assay to evaluate selective COX inhibition with good reproducibility.
(§3) Arachidonic acid was converted to PGH2 (Intermediate product) by COX1/COX-2 in the presence or absence of the test compound. The reaction was carried out at 37° C. and after 2 minutes it was stopped by adding 1M HCl. Intermediate product PGH2 was converted to a stable prostanoid product PGF2αby SnCl2 reduction. The amount of PGF2α, produced in the reaction was inversely proportional to the COX inhibitory potential of the test compound. The prostanoid product was quantified via enzyme immunoassay (EIA) using a broadly specific antibody that binds to all the major forms of prostaglandin, using Cayman ELISA kit as per the procedure outlined by the manufacturer (Cayman Chemicals, Ann Arbor, USA).

[6] = target: T2, purified recombinant COX-2 (Homo sapiens, UniProt P35354); experiment: COX-2 enzyme based assay; type: biochemical; conditions: NA = No activity, read-out: % Inhibition in rEnzyme Assay COX-2
T2 sequence (P35354 18-604): T1 sequence (P35354 18-604)
Experimental: as §1, §2, §3

[7] = tested on: PDE4; experiment: PDE4 activity; type: biochemical; conditions: source Human U937 cells
Experimental: PDE4 Activity PDE4 inhibition was measured by following a literature assay procedure (Cortizo J et al., Br J Pharmacol., 1993, 108: 562-568. The assay method involves the following conditions. • Source: Human U937 cells • Substrate: 1.01 μM [^3H] camp+camp • Vehicle: 1% DMSO • Pre-Incubation Time/Temperature: 15 minutes at 25° C. • Incubation Time/Temperature. 20 minutes at 25° C. • Incubation buffer: 50 mM Tris-HCl, pH 7.5, 5 mM MgCl2 • Quantitation method: Quantitation of [^3H] Adenosine • Significance criteria: >50% of max stimulation or inhibition The results are tabulated as shown in the table XIII.

purified recombinant COX-1, sequence (P23219 24-599): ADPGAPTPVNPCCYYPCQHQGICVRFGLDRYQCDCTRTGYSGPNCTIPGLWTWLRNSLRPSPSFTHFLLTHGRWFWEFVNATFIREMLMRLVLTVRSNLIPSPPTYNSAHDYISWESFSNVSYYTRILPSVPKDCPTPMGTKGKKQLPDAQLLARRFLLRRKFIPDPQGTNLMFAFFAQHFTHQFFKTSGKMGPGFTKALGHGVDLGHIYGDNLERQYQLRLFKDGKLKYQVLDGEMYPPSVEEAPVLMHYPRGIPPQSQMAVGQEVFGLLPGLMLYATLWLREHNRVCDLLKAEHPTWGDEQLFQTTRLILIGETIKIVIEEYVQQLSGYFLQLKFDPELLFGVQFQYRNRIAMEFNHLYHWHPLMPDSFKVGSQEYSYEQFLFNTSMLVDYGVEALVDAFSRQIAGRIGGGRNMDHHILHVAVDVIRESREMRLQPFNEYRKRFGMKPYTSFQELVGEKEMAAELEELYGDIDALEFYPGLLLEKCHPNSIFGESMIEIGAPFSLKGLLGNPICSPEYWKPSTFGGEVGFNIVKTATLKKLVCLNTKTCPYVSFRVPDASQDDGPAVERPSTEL

| inhibition at 10 µM [5] [%] | inhibition at 10 µM [6] [%] | SMILES | TNF-α Inhibition (%) at 50 mg/kg [4] [%] | PDE4 inhibition at 10 μM (%) [7] [%] | further results |
| --- | --- | --- | --- | --- | --- |
| 56.9 | 26.7 | NS(=O)(=O)c1cccc(-c2c(-c3ccc(F)cc3)nc(C(F)(F)F)nc2N2CCN(c3ccccn3)CC2)c1 [Example 53, 3-[4-(4-Fluorophenyl)-6-(4-pyridin-2-ylpiperazin-1-yl)-2-(trifluoromethyl)pyrimidin-5-yl]benzenesulfonamide] | 70.93 |  | inhibition at 1 µM [5]: 46.3%; inhibition at 1 µM [6]: 20% |
| 45.5 | 13.7 | NS(=O)(=O)c1cccc(-c2c(-c3ccc(F)cc3)nc(C(F)(F)F)nc2N2CCN(c3ncccn3)CC2)c1 [Example 54, 3-[4-(4-Fluorophenyl)-6-(4-pyrimidin-2-ylpiperazin-1-yl)-2-(trifluoromethyl)pyrimidin-5-yl]benzenesulfonamide] | 63.44 |  | inhibition at 1 µM [5]: 34.4% |
| 5.7 | 0.66 | NS(=O)(=O)c1cccc(-c2c(-c3ccccc3)nc(C(F)(F)F)nc2N2CCN(c3ncccn3)CC2)c1 [Example 57] | 52.02 |  | inhibition at 1 µM [6]: 8.29%; inhibition at 1 µM [3]: 84.5%; inhibition at 10 µM [3]: 88.9% |
| 19.2 | 7.03 | NS(=O)(=O)c1cccc(-c2c(-c3ccccc3)nc(C(F)(F)F)nc2N2CCN(c3ccc(C(F)(F)F)cn3)CC2)c1 [Example 115] | 54.23 |  | inhibition at 1 µM [5]: 6.29%; inhibition at 1 µM [3]: 37.8%; inhibition at 10 µM [3]: 58.3% |

Second part, the compound before the results:

| SMILES | inhibition at 10 µM [5] [%] | inhibition at 10 µM [6] [%] | TNF-α Inhibition (%) at 50 mg/kg [4] [%] | PDE4 inhibition at 10 μM (%) [7] [%] | further results |
| --- | --- | --- | --- | --- | --- |
| CS(=O)(=O)c1ccc(-c2nc(C(F)(F)F)nc(NN)c2-c2ccc(S(=O)(=O)NN)cc2)cc1 [Example 7, 4-{4-Hydrazino-6-[4-(methylsulfonyl)phenyl]-2-(trifluoromethyl)pyrimidin-5-yl}benzenesulfonohydrazide] |  |  |  |  | inhibition at 0.25 µM ([1]; 0.25 μM): 26.2%; inhibition at 1 µM ([1]; 1 μM): 1.9%; melting point: 203 to 206 °C |
| CS(=O)(=O)c1ccc(-c2nc(C(F)(F)F)nc(OS(=O)(=O)c3cccc4ccccc34)c2-c2ccccc2)cc1 [Example 18, 6-[4-(Methylsulfonyl)phenyl]-5-phenyl-2-(trifluoromethyl)pyrimidin-4-ylnapthalenesulfonate] |  |  |  |  | inhibition at 1 µM ([2]; 1 μM, read-out: IL-6 Inhibition (%) Conc. (1 μM)): 32.8%; inhibition at 10 µM ([2]; 10 μM, read-out: IL-6 Inhibition (%) Conc. (10 μM)): 41%; melting point: 204 to 206 °C |
| NS(=O)(=O)c1ccc(-c2c(-c3ccc(F)cc3)nc(C(F)(F)F)nc2N2CCNCC2)cc1 [Example 30, 4-[4-(4-Fluorophenyl)-6-piperazin-1-yl-2-(trifluoromethyl)pyrimidin-5-yl]benzenesulfonamide] |  |  | 84.84 |  | inhibition at 1 µM [3]: 43.2%; inhibition at 10 µM [3]: 100% |
| NS(=O)(=O)c1cccc(-c2c(-c3ccc(F)cc3)nc(C(F)(F)F)nc2N2CCN(S(=O)(=O)C(F)(F)F)CC2)c1 [Example 77, 5-(3-Aminosulfonylphenyl)-4-(4-fluorophenyl)-2-(trifluoromethyl)-6-{4-[(trifluoromethyl)sulfonyl]piperazin-1-yl}pyrimidine] |  |  |  | 94 |  |
| N#CCCN1CCN(c2nc(C(F)(F)F)nc(-c3ccc(F)cc3)c2-c2cccc(S(N)(=O)=O)c2)CC1 [Example 99, 3-{4-[4-(2-Cyanoethyl)piperazin-1-yl]-6-(4-fluorophenyl)-2-(trifluoromethyl)pyrimidin-5-yl}benzenesulfonamide] |  |  |  | 92 |  |
| NS(=O)(=O)c1cccc(-c2c(-c3ccc(F)cc3)nc(C(F)(F)F)nc2N2CCN(C(=O)C(F)(F)F)CC2)c1 [Example 108, 3-{6-(4-Fluorophenyl)-4-[4-(trifluoroacetyl)piperazin-1-yl]-2-(trifluoromethyl)pyrimidin-5-yl}benzenesulfonamide] |  |  |  | 90 |  |
| NS(=O)(=O)c1cccc(-c2nc(C(F)(F)F)nc(-n3ccnc3)c2-c2ccccc2)c1 [Example 166, 3-[4-(1H-imidazol-1-yl)-5-phenyl-2-(trifluoromethyl)pyrimidin-6-yl]benzenesulfonamide] |  |  |  | 82 |  |
